In patent US10736898B2, “Positive allosteric modulators of the muscarinic acetylcholine receptor M4” (Vanderbilt University, priority 2017, dated 2020):

Legend:
[1] = Dog Fu (plasma); format: in vitro ADME
Experimental: (§1) Compound 1 was evaluated in several well-known in vitro assays to investigate both metabolism and pharmacokinetics. Bidirectional permeability/efflux was determined in MDCK-MDR1 cells, which originate from transfection of Madin Darby canine kidney (MDCK) cells with the MDR1 gene. These assays were performed according to known methods as generally described in the following references: Conde-Ceide et al. ACS Med. Chem. Lett. 2015, 6, 716-720; Morris et al. J. Med. Chem. 2014, 57, 10192-10197; and Bubser et al. ACS Chem. Neurosci. 2014, 5, 920-942.

[2] = molecular target: P450 2D6 (Homo sapiens, UniProt P10635); test: P450 2D6 inhibition; format: in vitro ADME
Experimental: as §1

[3] = Rat CLint; format: in vitro ADME
Experimental: as §1

[4] = molecular target: P450 2C9 (Homo sapiens, UniProt P11712); test: P450 2C9 inhibition; format: in vitro ADME
Experimental: as §1

[5] = test system: male Sprague-Dawley rats; test: Reversal of amphetamine-induced hyperlocomotion in rats; format: in vivo, rat
Experimental: Drugs: d-Amphetamine hemisulfate was obtained from Sigma (St. Louis, Mo.). Salt-correction was used to determine the correct amount of the d-amphetamine hemisulfate form in milligrams to add to sterile water in order to yield a 0.75 mg/mL solution, which would be dosed at 1 mL/kg body weight of each animal. […] The solutions were formulated so that animals were injected with a volume equal to 10 mL/kg body weight for all compounds. The appropriate amount according to the dosage was mixed in 10% Tween 80 (Sigma) 90% sterile water. The mixtures were then vortexed and stored in a 39° C. sonication bath for 1 hour, until in a microsuspension (except for the highest dose, which was a suspension).
Animals: Male Sprague-Dawley rats weighing 239-300 grams and averaging 265 g (Harlan, Inc., Indianapolis, Ind.) were used. They were housed in the animal care facility certified by the American Association for the Accreditation of Laboratory Animal Care (AALAC) under a 12-hour light/dark cycle (lights on: 6 a.m.; lights off: 6 p.m.) and had free access to food and water. The animals used in this experiment were food-deprived the evening before experimentation for oral dosing of compound/vehicle. The experimental protocols performed during the light cycle were approved by the Institutional Animals Care and Use Committee of Vanderbilt University and conformed to the guidelines established by the National Research Council Guide for the Care and Use of Laboratory Animals.
Amphetamine-induced Hyperlocomotion: Male Harlan Sprague Dawley rats were habituated in Smart Open Field locomotor activity test chambers (Hamilton-Kinder, San Diego, Calif.) with 16×16 photo beams to automatically record locomotor activity. […] They were monitored for an additional 30 minutes and then injected subcutaneously with vehicle or […] amphetamine. Animals were then monitored for an additional 60 minutes, for a total of 120 minutes. Data were expressed as changes in ambulation defined as total number of beam breaks per 5 minute interval. […]
Data Analysis: Behavioral data were analyzed using a two-way ANOVA with main effects of treatment and time. […] In addition, the total number of beam breaks from the amphetamine administration (65 min) to the end of the study (120 min) was calculated and graphed. Percent Reversal was calculated as follows using Microsoft Excel: In each animal, total ambulation from t=65 to t=120 was summed. The mean of each sum was calculated in the VAMP group. Then, for each animal, Percent Reversal was calculated with the following formula: Percent Reversal=100−{[(total ambulation in each animal from t=65 to t=120)/(mean of each sum from t=65 to t=120 in VAMP group)]*100}. The mean Percent Reversal, as well as the standard error, was calculated for each dose group using GraphPad Prism V5.04.

[6] = Rat Fu (brain); format: in vitro ADME
Experimental: as §1

[7] = In vivo pharmacokinetics in rats (IV and PO)
Experimental: Compound 1 was evaluated in several in vivo studies to investigate its metabolism and pharmacokinetics.
Male Sprague-Dawley rats (n=2) weighing around 300 g were purchased from Harlon Laboratories (Indianapolis, Ind.) and implanted with catheters in the carotid artery and jugular vein. For intravenous (IV) administration, male Sprague-Dawley rats (n=2) were each administered a single 0.2 mg/kg dose of the test article via a jugular cannula and then blood samples were collected via a carotid artery catheter at 0.033, 0.117, 0.25, 0.5, 1, 2, 4, 7, 12, and 24 hours post-dosing from each animal. For oral (PO) administration, fasted male Sprague-Dawley rats (n=2) were each administered a single 3 mg/kg dose of the test article via oral gavage and then blood samples were collected via a carotid artery catheter at 0.25, 0.5, 1, 2, 4, 7, 12, and 24 hours post-dosing from each animal. Upon sampling, blood was collected into chilled, EDTA-fortified tubes and immediately placed on wet ice. Samples were then centrifuged for 10 minutes at 3500 rcf (at 4° C.) to obtain plasma. The plasma samples were stored at −80° C. until analysis. During the analysis, the samples were thawed on bench at room temperature and 20 μL was transferred to 96-well plate. 120 μL of 50 nM carbamazepine in acetonitrile was added to the plasma sample to precipitate the protein and provide the internal standard. After vortex and centrifugation, 75 μL of supernatant was transferred to another 96-well plate that contained 75 μL of water. 10 μL of the diluted supernatant was injected onto an AB Sciex 4000 or 5500 LC-MS/MS system for quantitation. The detection range for analyte was 0.5 to 5000 ng/mL utilizing a quadratic curve with 1/x^2 weighting. Sciex Analyst 1.4.2 software was used for data acquisition and quantitation. Pharmacokinetic parameters were determined from individual animal data using non-compartmental analysis (Model 201) in WinNonlin (v5.3, Pharsight Corp., Mountain View, Calif.).

[8] = test system: 68 primary molecular targets; test: Eurofins LeadProfilingScreen (binding); conditions: at 10 μM (binding); 68 targets
Text: The screen includes 68 primary molecular targets, including several CNS targets recommended by the EMEA to evaluate drug dependence potential.

[9] = Human CLint; format: in vitro ADME
Experimental: as §1

Chain of P450 2D6 (P10635 whole entry): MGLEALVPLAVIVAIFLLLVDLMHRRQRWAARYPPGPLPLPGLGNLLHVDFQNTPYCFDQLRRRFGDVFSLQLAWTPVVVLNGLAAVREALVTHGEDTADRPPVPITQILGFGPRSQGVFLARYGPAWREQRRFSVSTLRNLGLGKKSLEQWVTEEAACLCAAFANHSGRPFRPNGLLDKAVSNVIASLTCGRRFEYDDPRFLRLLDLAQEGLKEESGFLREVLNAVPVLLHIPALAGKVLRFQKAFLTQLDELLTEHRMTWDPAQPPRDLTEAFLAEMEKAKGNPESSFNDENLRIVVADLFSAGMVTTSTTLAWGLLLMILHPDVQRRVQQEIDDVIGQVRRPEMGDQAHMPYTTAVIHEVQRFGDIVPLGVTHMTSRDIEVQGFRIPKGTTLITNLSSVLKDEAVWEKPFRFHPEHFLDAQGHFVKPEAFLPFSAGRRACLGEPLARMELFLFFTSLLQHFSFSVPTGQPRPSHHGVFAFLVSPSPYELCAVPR
Chain of P450 2C9 (P11712 whole entry): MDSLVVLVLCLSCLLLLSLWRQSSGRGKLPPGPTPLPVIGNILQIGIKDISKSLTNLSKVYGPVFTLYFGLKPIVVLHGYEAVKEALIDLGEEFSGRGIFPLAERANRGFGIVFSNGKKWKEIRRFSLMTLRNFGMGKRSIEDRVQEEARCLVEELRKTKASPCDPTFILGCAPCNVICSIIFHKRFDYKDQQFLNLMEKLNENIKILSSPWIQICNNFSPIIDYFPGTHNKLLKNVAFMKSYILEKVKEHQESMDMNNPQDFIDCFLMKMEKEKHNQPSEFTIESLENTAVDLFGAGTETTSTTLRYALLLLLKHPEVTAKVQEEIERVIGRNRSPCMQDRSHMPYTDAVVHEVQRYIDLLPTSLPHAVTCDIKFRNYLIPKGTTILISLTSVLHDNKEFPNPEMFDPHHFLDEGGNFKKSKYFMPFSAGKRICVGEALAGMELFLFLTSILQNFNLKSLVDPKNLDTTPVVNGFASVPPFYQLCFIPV

Cc1nc(C)c2c(n1)sc1c(NCc3ccc(C(C)(C)O)cc3)ncnc12 [Compound 1, 2-(4-(((7,9-Dimethylthieno[2,3-d:4,5-d′]dipyrimidin-4-yl)amino)methyl)phenyl)propan-2-ol]
fraction unbound [1]: 0.072
IC50 [2]: > 30 µM
CLint scaled [3]: 78 mL/min/kg
IC50 [4]: 17 µM
percent reversal of amphetamine-induced hyperlocomotion ([5]; 1 mg/kg p.o.): 30.5%
percent reversal of amphetamine-induced hyperlocomotion ([5]; 3 mg/kg p.o.): 41.1%
percent reversal of amphetamine-induced hyperlocomotion ([5]; 10 mg/kg p.o.): 54.2%
fraction unbound [6]: 0.016
Rat oral F ([7]; 3 mg/kg PO): >100%
clearance ([7]; male, Sprague-Dawley, plasma, rat, IV 0.2 mg/kg, read-out: Rat CLp): 7.1 mL/min/kg
Vd ([7]; male, Sprague-Dawley, plasma, rat, IV 0.2 mg/kg, read-out: Rat Vss): 1.1 L/kg
half-life ([7]; male, Sprague-Dawley, rat, plasma, read-out: Rat Elim. t1/2 (converted)): 1.9 h
inhibition of each target in the LeadProfilingScreen [8]: < 50%
CLint scaled [9]: 26 mL/min/kg
